Reference: patent US7851497B2 (priority 2004, dated 2010)
Structures can show the parent of a compound that is named as a salt. Where two headings read alike, the source gives them in different places.

Columns and labels:
Type in all cases: in vivo
cucumber downy mildew [1] = assay: Test on curative effect against cucumber downy mildew
Protocol: Cucumber (cultivar: Suyo) was cultivated in a polyethylene pot having a diameter of 7.5 cm, and when it reached two-leaf stage, the cucumber was sprayed and inoculated with a suspension of spores of cucumber downy mildew and kept in a humidified chamber at 20° C. for 4 hours. Then, after drying the crop plant, a drug solution having the respective test compounds adjusted to the predetermined concentrations, was applied in a sufficient amount (20 ml) by means of a spray gun. After the sprayed solution dried, it was kept in a thermostatic chamber at 20° C. for 7 days, whereupon the lesion area ratio in the first leaf was investigated, and the control value was obtained by the following formula. Here, the test was carried out in double series.
(§1) The lesion area in non-treated area was obtained in the same manner as in the treated area except that instead of the drug solution, water was applied by means of a spray gun. Control value=(b−a)/b×100 where a is the lesion area ratio in treated area, and b is the lesion area ratio in non-treated area.
(§2) Further, a theoretical value can be calculated by the Colby formula. If the experimental value is higher than the theoretical value by the Colby formula, the fungicidal composition for agricultural or horticultural use of the present invention has a synergistic effect for controlling the plant disease. In this context, the theoretical values by the Colby formula are also shown in brackets ( ) in Table 2.

cucumber downy mildew [2] = assay: Test on preventive effect against cucumber downy mildew
Protocol: Cucumber (cultivar: Suyo) was cultivated in a polyethylene pot having a diameter of 7.5 cm, and when the cucumber reached two-leaf stage, a drug solution having the respective test compounds adjusted to the predetermined concentrations, was applied in a sufficient amount (20 ml) by means of a spray gun. After the applied solution dried, the cucumber was sprayed and inoculated with a suspension of spores of cucumber downy mildew and kept in a humidified chamber at 20° C. for 4 hours. Thereafter, the cucumber was kept in a thermostatic chamber at 20° C. for 7 days, whereupon the lesion area ratio in the first leaf was investigated, and the control value was obtained by the following formula. Here, the test was carried out in double series.
as §1, with “lesion area ratio in non-treated” for “lesion area in non-treated”
as §2, with “1.” for “2.”

tomato late blight = test system: tomato late blight
[3] = propamocarb hydrochloride 1000 ppm alone (Compound No. 1 0 ppm)
[4] = propamocarb hydrochloride 2000 ppm alone (Compound No. 1 0 ppm)
[5] = propamocarb hydrochloride 4000 ppm alone (Compound No. 1 0 ppm)

| SMILES | Control value in the test on curative effect against cucumber downy mildew (cucumber downy mildew [1]; Compound No. 1 125 ppm alone (propamocarb hydrochloride 0 ppm)) | Control value in the test on curative effect against cucumber downy mildew (cucumber downy mildew [1]; Compound No. 1 500 ppm alone (propamocarb hydrochloride 0 ppm)) | Control value in the test on preventive effect against cucumber downy mildew (cucumber downy mildew [2]; Compound No. 1 0.03 ppm alone (propamocarb hydrochloride 0 ppm)) | Control value in the test on preventive effect against cucumber downy mildew (cucumber downy mildew [2]; Compound No. 1 0.13 ppm alone (propamocarb hydrochloride 0 ppm)) | Control value in the test on preventive effect against tomato late blight (tomato late blight; Compound No. 1 0.5 ppm alone (propamocarb hydrochloride 0 ppm)) | Control value in the test on curative effect against cucumber downy mildew (cucumber downy mildew [1]; [3]) | Control value in the test on curative effect against cucumber downy mildew (cucumber downy mildew [1]; [4]) | Control value in the test on curative effect against cucumber downy mildew (cucumber downy mildew [1]; [5]) | Control value in the test on preventive effect against cucumber downy mildew (cucumber downy mildew [2]; [3]) | Control value in the test on preventive effect against cucumber downy mildew (cucumber downy mildew [2]; [4]) | Control value in the test on preventive effect against cucumber downy mildew (cucumber downy mildew [2]; [5]) | Control value in the test on preventive effect against tomato late blight (tomato late blight; [3]) | Control value in the test on preventive effect against tomato late blight (tomato late blight; [4]) | Control value in the test on preventive effect against tomato late blight (tomato late blight; [5]) |
| --- | --- | --- | --- | --- | --- | --- | --- | --- | --- | --- | --- | --- | --- | --- |
| Cc1ccc(-c2c(Cl)nc(C#N)n2S(=O)(=O)N(C)C)cc1 [Compound No. 1, 4-Chloro-2-cyano-1-dimethylsulfamoyl-5-(4-methylphenyl)imidazole] | 0 | 90 | 0 | 90 | 67 |  |  |  |  |  |  |  |  |  |
| CCCOC(=O)NCCCN(C)C [propamocarb hydrochloride] |  |  |  |  |  | 10 | 20 | 30 | 0 | 10 | 30 | 0 | 0 | 0 |
